From patent US20050027003A1, “Methods of therapeutic treatment using retinoids with reduced side effects” (Allergan, Inc., priority 2003, published 2005)
Like-named read-outs stand apart in the source and are kept apart here. Blank lines part the entries; values can stand above or below the compound they belong to.

Legend:
[1] = system: patients; conditions: published data (N = 525); cited from earlier work
[2] = in vivo; cited from earlier work
[3] = in vivo; cited from earlier work; remark: listed apart in the source
[4] = system: patients; conditions: published data (N = 525); cited from earlier work; remark: listed apart in the source
[5] = oral; cited from earlier work
[6] = system: RARs; test: Activation of and selectivity among the retinoic acid receptors; type: cell-based; conditions: relative to all-trans-retinoic acid, the natural ligand
From the text: (§1) The selection of a retinoid component useful in accordance with the present invention can be accomplished using straightforward, conventional testing and/or assays, such as the transactivation assays set forth in Evans et al., U.S. Pat. Nos., 5,217,867; 5,262,300; 5,310,662; and 5,906,920, each of which is hereby incorporated in its entirety herein by reference, which are well known in the art. Such testing and/or assays can identify suitable useful retinoid components without undue experimentation.
(§2) Other well known and straightforward test methods and/or assays may be employed to determine the selectivity or specificity of an RAR active compound to RAR-alpha, RAR-beta and RAR-gamma. For example, using conventional and well known assays, for example, such as set forth in Klein et al. U.S. Pat. No. 5,776,699, the disclosure of which is incorporated in its entirety herein by reference, and/or the above-noted Evans et al. patents, the selectively or specificity of a compound to RAR-alpha, RAR-beta and RAR-gamma can be determined. Based on the results of such assays, one can determine whether or not a compound is useful in accordance with one or more aspects of the present invention.

[7] = Example 7: effect of body weight on plasma tazarotenic acid Cmax and AUC; type: in vivo, human; conditions: 6 mg tazarotene daily
Experimental: The LC-MS/MS test for simultaneous detection of tazarotene and tazarotenic acid may be run as follows. One ml of plasma (EDTA-treated) is diluted with 1.0 ml of water. Diluted plasma is extracted using solid phase extraction (SPE) on a C18 cartridge. The eluate is evaporated, reconstituted in a water/methanol-based mobile phase, and injected onto a 4.6×50 mm, 3 μm pore size C-8 reverse phase high pressure liquid chromatography (HPLC) column (Agilent, Wilmington, Del.). Compounds are gradient-eluted at 1.2 mL/min and detected using an API 3000 triple quadrupole mass spectrometer with an Atmospheric Pressure Chemical Ionization (APCI) source (PE-Sciex, Concord, Ontario, Canada). Molecular reaction monitoring enhances the sensitivity and selectivity of this assay by collisionally dissociating the protonated molecules for the analyte and an internal standard thereby forming the product ions. The specific precursor-product ion pair monitored are m/z 352→324 for tazarotene, m/z 359→331 for the tazarotene internal standard, m/z 324→294 for tazarotenic acid, and m/z 331+298 for the tazarotenic acid internal standard. The lower limit of quantitation at assay range tested is 0.1 ng/mL, with a coefficient of variation and deviation from nominal concentration of <15%. […]

[8] = Example 1: 6.3 mg oral tazarotene with high-fat meal vs 8-10 hour fast, pharmacokinetics; type: in vivo, human
Experimental: The LC-MS/MS test for simultaneous detection of tazarotene and tazarotenic acid may be run as follows. One ml of plasma (EDTA-treated) is diluted with 1.0 ml of water. Diluted plasma is extracted using solid phase extraction (SPE) on a C18 cartridge. The eluate is evaporated, reconstituted in a water/methanol-based mobile phase, and injected onto a 4.6×50 mm, 3 μm pore size C-8 reverse phase high pressure liquid chromatography (HPLC) column (Agilent, Wilmington, Del.). Compounds are gradient-eluted at 1.2 mL/min and detected using an API 3000 triple quadrupole mass spectrometer with an Atmospheric Pressure Chemical Ionization (APCI) source (PE-Sciex, Concord, Ontario, Canada). Molecular reaction monitoring enhances the sensitivity and selectivity of this assay by collisionally dissociating the protonated molecules for the analyte and an internal standard thereby forming the product ions. The specific precursor-product ion pair monitored are m/z 352→324 for tazarotene, m/z 359→331 for the tazarotene internal standard, m/z 324→294 for tazarotenic acid, and m/z 331+298 for the tazarotenic acid internal standard. The lower limit of quantitation at assay range tested is 0.1 ng/mL, with a coefficient of variation and deviation from nominal concentration of <15%.

[9] = molecular target: T1, RAR-α (Homo sapiens, UniProt P10276); test: RAR-α activity; type: cell-based
T1 sequence (P10276 1-462): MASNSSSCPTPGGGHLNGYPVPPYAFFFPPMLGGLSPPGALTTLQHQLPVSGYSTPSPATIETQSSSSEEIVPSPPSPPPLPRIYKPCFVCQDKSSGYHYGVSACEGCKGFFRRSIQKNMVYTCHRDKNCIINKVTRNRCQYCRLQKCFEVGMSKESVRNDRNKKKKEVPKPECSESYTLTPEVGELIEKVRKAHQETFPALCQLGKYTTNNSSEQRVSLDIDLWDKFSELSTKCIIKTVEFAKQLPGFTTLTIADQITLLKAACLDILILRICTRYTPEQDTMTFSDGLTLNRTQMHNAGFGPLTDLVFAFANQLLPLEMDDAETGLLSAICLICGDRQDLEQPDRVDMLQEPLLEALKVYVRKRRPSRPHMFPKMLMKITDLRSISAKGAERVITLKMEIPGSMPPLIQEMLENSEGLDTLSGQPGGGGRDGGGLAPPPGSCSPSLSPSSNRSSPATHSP
From the text: as §1, §2

Compound: COc1cc(C)c(/C=C/C(C)=C/C=C/C(C)=C/C(=O)O)c(C)c1C [acitretin]
Adverse event: Alopecia [1]: 319 (60.8) number (%) of patients | Adverse event: Arthralgia [1]: 102 (19.4) number (%) of patients | Adverse event: Atrophy of skin [1]: 64 (12.2) number (%) of patients | Adverse event: Back pain [1]: 41 (7.8) number (%) of patients | Adverse event: Cheilitis [1]: 429 (81.7) number (%) of patients | Adverse event: Dry Skin [1]: 174 (33.1) number (%) of patients | Adverse event: Dry mouth/Oral dryness [1]: 76 (14.5) number (%) of patients | Adverse event: Epistaxis [1]: 61 (11.6) number (%) of patients | Adverse event: Erythematous rash/Erythema [1]: 57 (10.9) number (%) of patients | Adverse event: Hyperesthesia [1]: 66 (12.6) number (%) of patients | Adverse event: Nail Disorder [1]: 170 (32.4) number (%) of patients | Adverse event: Paresthesia [1]: 56 (10.7) number (%) of patients | Adverse event: Paronychia/Nail disorder [1]: 66 (12.6) number (%) of patients | Adverse event: Pruritus [1]: 157 (29.9) number (%) of patients | Adverse event: Rhinitis [1]: 153 (29.1) number (%) of patients | Adverse event: Rigors/Chills [1]: 67 (12.8) number (%) of patients | Adverse event: Skin peeling/Desquamation [1]: 345 (65.7) number (%) of patients | Adverse event: Sticky skin/Skin disorder [1]: 129 (24.6) number (%) of patients | Adverse event: Xerophthalmia/Eye disorder [1]: 112 (21.3) number (%) of patients | bioavailability vs body weight [2]: increased with a reduced body weight | interaction with coadministered contraceptives [3]: interferes with the contraceptive effect

Compound: CC1=C(/C=C/C(C)=C/C=C/C(C)=C\C(=O)O)C(C)(C)CCC1 [isotretinoin]
Adverse event: Cheilitis [4]: 472 (90.2) number (%) of patients | Adverse event: Conjunctivitis [4]: 201 (38.4) number (%) of patients | Adverse event: Desquamation central face/Desquamation [4]: 187 (35.8) number (%) of patients | Adverse event: Dry Skin [4]: 172 (32.9) number (%) of patients | Adverse event: Dry nose [4]: 136 (26.0) number (%) of patients | Adverse event: Epistaxis [4]: 121 (23.1) number (%) of patients | Adverse event: Fingertip peeling/Desquamation [4]: 63 (12.0) number (%) of patients | Adverse event: Headache [4]: 44 (8.4) number (%) of patients | Adverse event: Irritation of eyes [4]: 85 (16.3) number (%) of patients | Adverse event: Joint pain/Arthralgia [4]: 60 (11.5) number (%) of patients | Adverse event: Pruritus [4]: 127 (24.3) number (%) of patients | Adverse event: Rash-dermatitis/Rash [4]: 82 (15.7) number (%) of patients | Adverse event: Red Scaly face/Desquamation [4]: 54 (10.3) number (%) of patients | Adverse event: Skin fragility/Skin disorder [4]: 164 (31.4) number (%) of patients | total dose to reach the same peak blood concentration in the fasted state as following a high fat meal [5]: more than doubled | bioavailability vs body weight [2]: increased with a reduced body weight | interaction with coadministered contraceptives [3]: decreases blood concentrations of both ethinyl estradiol and norethindrone

Compound: CCOC(=O)/C=C(C)/C=C/C=C(C)/C=C/c1c(C)cc(OC)c(C)c1C [etretinate]
bioavailability vs body weight [2]: increased with a reduced body weight

average ratio of Cmax (test/reference) ([8]; Day 0, high-fat meal vs fasted): 1.00 | effect of high-fat meal on bioavailability or pharmacokinetics ([8]; single and multiple dose): does not substantially affect | RAR-α activity [9]: minimal
Compound: CC1(C)CCSc2ccc(C#Cc3ccc(C(=O)O)cn3)cc21 [tazarotenic acid]
receptor specificity and selectivity [6]: specificity for the RARs and selectivity for RAR-β and RAR-γ | correlation of AUC with body weight ([7]; day 0): may be a correlation | correlation between either Cmax or AUC and body weight ([7]; day 9): no correlation
